Results on four compounds are retold here after patent publication US8445466B2, “Stable aqueous compositions comprising amide-protected bioactive creatine species and uses thereof” (priority 2010, dated 2013).

The nature of data set [1]: Stability of creatyl-L-glutamine formulations on storage in glass vials, HPLC assay of C-L-G and creatinine. The format is physicochemical. The method, then: Specifically exemplified herein are three different formulations prepared using stable creatyl-L-glutamine (C-L-G) at a concentration of 1.00 mg/ml between pH 3.0 to 7.0. These formulations are described below.
The above described formulations were stored in glass vials at room temperature (25° C., 77° F.), at refrigerator temperature (4° C., 39° F.) and at elevated temperature (40° C., 104° F.) in vials. These samples were assayed by HPLC at periodic intervals for minimum of 60 days for creatyl-L-glutamine (C-L-G) and creatinine (degradation product of creatine) content. The % recovery results are presented below.

Data set [2] can be described thus: Conversion of creatine to creatinine in aqueous solutions. The data set is classed as physicochemical. As to conditions: aqueous solution 0.250 mg/mL.
Data set [3] has as its system patients with idiopathic PD. As to conditions: 20 g/d for the first 5 days and 5 g/d thereafter, 24 sessions of resistance training; cited from earlier work.
The test system of data set [4] is highly trained adolescent (mean age 16) fin swimmers. As to conditions: five days of supplementation; cited from earlier work.
For data set [5] the following is noted: cited from earlier work.
For data set [6], the system named is person with myasthenia gravis. As to conditions: 5 grams daily with resistance training 3× per week for 15 weeks; cited from earlier work.
The subject of data set [7] is young adult, vegetarian subjects. As to conditions: oral, 5 grams daily for six weeks, 45 subjects; cited from earlier work.
Data set [8] has as its system patients with McArdle disease. As to conditions: cited from earlier work.
The conditions of data set [9]: cited from earlier work. The source holds these as a separate data set.
Data set [10] relates to small cohorts of athletes. As to conditions: oral; short term (5 days), medium term (9 weeks) and long term (up to 5 years); cited from earlier work.
In data set [11] the test system is Division IA college football players. As to conditions: up to 21-months; 15.75 g/day for five days, average 5 g/day thereafter; cited from earlier work.

Regarding `CN(CC(=O)N[C@@H](CCC(N)=O)C(=O)O)C(=N)N` [creatyl-L-glutamine], the “time composition is stable” value in data set [1] (elevated temperature (40° C., 104° F.)) is on record as “more than 30 days”. For the same compound, the “time aqueous solutions remain stable” value in data set [1] (refrigerator temperature (4° C., 39° F.)) is reported as “more than 90 days”; in [1] (room temperature (25° C., 77° F.)) it was “more than 90 days”.

Consider `CN(CC(=O)O)C(=N)N.O` [Creatine Monohydrate, creatine monohydrate], for which the “COP Assay” value in data set [2] (pH 3.0, 25 C.°, 39 Days) stood at 0.072 mg/mL; in [2] (pH 3.0, 25 C.°, 3 day), 0.219 mg/ml mg/mL; in data set [2] (pH 3.0, 25 C.°, 10 days) it was 0.214 mg/mL; in data set [2] (pH 3.0, 25 C.°, 21 days) it was 0.151 mg/mL; in [2] (pH 3.0, 25 C.°, INITIAL) it was 0.245 mg/mL; in data set [2] (pH 3.0, 40 C.°, 39 Days), 0.030 mg/mL. Moreover, the “COP Assay” value in data set [2] (pH 3.0, 40 C.°, 3 day) amounted to 0.091 mg/ml mg/mL; in data set [2] (pH 3.0, 40 C.°, 10 days), 0.036 mg/mL; in data set [2] (pH 3.0, 40 C.°, 21 days) it was 0.029 mg/mL; in data set [2] (pH 3.0, 40 C.°, INITIAL) it was 0.245 mg/mL; in data set [2] (pH 7.0, 40 C.°, 31 Days), 0.251 mg/mL; in data set [2] (pH 7.0, 40 C.°, 3 day) it was 0.242 mg/ml mg/mL. In addition, the “COP Assay” value in [2] (pH 7.0, 40 C.°, INITIAL) is recorded as 0.257 mg/mL. The Creatinine in data set [2] (pH 3.0, 25 C.°, 39 Days) is 0.154 mg/mL; in [2] (pH 3.0, 25 C.°, 3 day), 0.026 mg/mL; in data set [2] (pH 3.0, 25 C.°, 10 days), 0.072 mg/ml mg/mL; in data set [2] (pH 3.0, 25 C.°, 21 days), 0.111 mg/mL; in data set [2] (pH 3.0, 25 C.°, INITIAL) it was 0.000 mg/mL; in data set [2] (pH 3.0, 40 C.°, 39 Days) it was 0.186 mg/mL. Also, the Creatinine in data set [2] (pH 3.0, 40 C.°, 3 day) came out at 0.125 mg/mL; in data set [2] (pH 3.0, 40 C.°, 10 days) it was 0.177 mg/ml mg/mL; in data set [2] (pH 3.0, 40 C.°, 21 days), 0.186 mg/mL; in data set [2] (pH 3.0, 40 C.°, INITIAL) it was 0.000 mg/mL; in [2] (pH 7.0, 40 C.°, 31 Days), 0.068 mg/mL; in data set [2] (pH 7.0, 40 C.°, 3 day), 0.008 mg/mL. The Creatinine in data set [2] (pH 7.0, 40 C.°, INITIAL) was determined as 0.000 mg/mL. The biceps curl strength result in data set [3] is given as “significantly improved”. Moreover, the chest press strength result in data set [3] is on record as “significantly improved”.

“disodium creatine phosphate tetrahydrate”: the “Creatine Monohydrate” value in data set [2] (pH 3.0, 25 C.°, 39 Days) stood at 0.031 mg/mL; in data set [2] (pH 3.0, 25 C.°, 3 day), 0.095 mg/mL; in data set [2] (pH 3.0, 25 C.°, 10 days) it was 0.092 mg/mL; in data set [2] (pH 3.0, 25 C.°, 21 days) it was 0.065 mg/mL; in data set [2] (pH 3.0, 25 C.°, INITIAL), 0.000 mg/ml mg/mL; in [2] (pH 3.0, 40 C.°, 39 Days), 0.012 mg/ml mg/mL. The “Creatine Monohydrate” value in data set [2] (pH 3.0, 40 C.°, 3 day) is on record as 0.042 mg/mL; in [2] (pH 3.0, 40 C.°, 10 days) it was 0.017 mg/mL; in data set [2] (pH 3.0, 40 C.°, 21 days), 0.011 mg/mL; in [2] (pH 3.0, 40 C.°, INITIAL), 0.004 mg/mL; in [2] (pH 7.0, 25 C.°, 39 Days) it was 0.089 mg/mL; in data set [2] (pH 7.0, 25 C.°, 10 days), 0.041 mg/mL. Also, the “Creatine Monohydrate” value came out at 0.069 mg/mL in data set [2] (pH 7.0, 25 C.°, 21 days); 0.00 mg/mL in data set [2] (pH 7.0, 25 C.°, INITIAL); 0.108 mg/mL in [2] (pH 7.0, 40 C.°, 39 Days); 0.042 mg/mL in data set [2] (pH 7.0, 40 C.°, 3 day); 0.114 mg/mL in data set [2] (pH 7.0, 40 C.°, 10 days); 0.122 mg/mL in data set [2] (pH 7.0, 40 C.°, 21 days). Moreover, the “Creatine Monohydrate” value in data set [2] (pH 7.0, 40 C.°, INITIAL) was 0.00 mg/mL. The Creatinine was 0.069 mg/mL in data set [2] (pH 3.0, 25 C.°, 39 Days); 0.014 mg/mL in data set [2] (pH 3.0, 25 C.°, 3 day); 0.034 mg/mL in data set [2] (pH 3.0, 25 C.°, 10 days); 0.050 mg/ml mg/mL in [2] (pH 3.0, 25 C.°, 21 days); 0.000 mg/mL in [2] (pH 3.0, 25 C.°, INITIAL); 0.081 mg/mL in data set [2] (pH 3.0, 40 C.°, 39 Days). Also, the Creatinine in data set [2] (pH 3.0, 40 C.°, 3 day) was determined as 0.054 mg/mL; in data set [2] (pH 3.0, 40 C.°, 10 days) it was 0.086 mg/mL; in data set [2] (pH 3.0, 40 C.°, 21 days), 0.080 mg/ml mg/mL; in data set [2] (pH 3.0, 40 C.°, INITIAL) it was 0.000 mg/mL; in data set [2] (pH 7.0, 25 C.°, 39 Days), 0.000 mg/mL; in data set [2] (pH 7.0, 25 C.°, 3 day), 0.000 mg/mL. Besides, the Creatinine is 0.000 mg/mL in [2] (pH 7.0, 25 C.°, 10 days); 0.000 mg/ml mg/mL in data set [2] (pH 7.0, 25 C.°, 21 days); 0.000 mg/mL in data set [2] (pH 7.0, 25 C.°, INITIAL); 0.030 mg/mL in data set [2] (pH 7.0, 40 C.°, 39 Days); 0.004 mg/mL in [2] (pH 7.0, 40 C.°, 3 day); 0.012 mg/mL in [2] (pH 7.0, 40 C.°, 10 days). In addition, the Creatinine came out at 0.020 mg/ml mg/mL in data set [2] (pH 7.0, 40 C.°, 21 days) and 0.000 mg/mL in data set [2] (pH 7.0, 40 C.°, INITIAL).

Consider `CN(CC(=O)O)C(=N)N` [creatine, 2-(carbamimidoyl-methyl-amino) acetic acid], for which, in data set [4], the dynamic strength entry is reported as “enhances” and the “performance in consecutive maximal swims” value is reported as “improves”. Besides, the “degradation in the GI tract into creatinine, estimated rate” value in [5] (GI tract) is recorded as ~0.1 g of a 5 g dose per hour. Moreover, the “non-enzymatic conversion into creatinine” value in [5] (typical 70 kg individual) was “approximately 1.7 % daily”. In data set [6], the improved peak strength result was “up to 37%”, the “increase in body weight” value is 7% and the “increase in fat free mass” value is 4%. In data set [7], the “intelligence (Raven's Advanced Progressive Matrices)” value was “significantly improves” and the “working memory (backward digit span)” value is reported as “significantly improves”. The skeletal muscle function entry in [8] is reported as “improves”. The “average increase in muscle strength, greater than following placebo ingestion” value in data set [9] (22 published studies, during resistance training) is 8%. Besides, in [9] (22 published studies, placebo 12%), the “average increase in muscle strength following creatine supplementation during resistance training” value is given as 20%. Moreover, the “average increase in weightlifting performance, greater than following placebo ingestion” value in data set [9] (during resistance training) is 14%. In addition, the “average increase in weightlifting performance (maximal repetitions at a given percent of maximal strength)” value in data set [9] (during resistance training, placebo 12%) is given as 26%. Moreover, the adverse health effect entry in [9] (short- or long-term creatine supplementations) is given as “no adverse health effect”. The “adverse effects on renal function” value in [10] was “No adverse effects”. Moreover, the “adverse effect in long-term supplementation” value in [11] is listed as “No adverse effect”.
